Experimental data reported in patent US20150352108A1, “AMINO-PYRIMIDINE COMPOUNDS AS INHIBITORS OF TBK1 AND/OR IKK EPSILON” (Alzheimer's Institute of America, priority 2009, published 2015).
Read-outs that look alike come from different tables or passages of the source.

Experiments:
IKKε = target: T1, IKKε (Homo sapiens, UniProt Q14164); test: In-vitro IKKε kinase assay ([γ33]ATP filter-plate); format: biochemical
T1 construct: His-tag; made in house; host or cells: Sf9 insect cells
T1 sequence (Q14164 1-716): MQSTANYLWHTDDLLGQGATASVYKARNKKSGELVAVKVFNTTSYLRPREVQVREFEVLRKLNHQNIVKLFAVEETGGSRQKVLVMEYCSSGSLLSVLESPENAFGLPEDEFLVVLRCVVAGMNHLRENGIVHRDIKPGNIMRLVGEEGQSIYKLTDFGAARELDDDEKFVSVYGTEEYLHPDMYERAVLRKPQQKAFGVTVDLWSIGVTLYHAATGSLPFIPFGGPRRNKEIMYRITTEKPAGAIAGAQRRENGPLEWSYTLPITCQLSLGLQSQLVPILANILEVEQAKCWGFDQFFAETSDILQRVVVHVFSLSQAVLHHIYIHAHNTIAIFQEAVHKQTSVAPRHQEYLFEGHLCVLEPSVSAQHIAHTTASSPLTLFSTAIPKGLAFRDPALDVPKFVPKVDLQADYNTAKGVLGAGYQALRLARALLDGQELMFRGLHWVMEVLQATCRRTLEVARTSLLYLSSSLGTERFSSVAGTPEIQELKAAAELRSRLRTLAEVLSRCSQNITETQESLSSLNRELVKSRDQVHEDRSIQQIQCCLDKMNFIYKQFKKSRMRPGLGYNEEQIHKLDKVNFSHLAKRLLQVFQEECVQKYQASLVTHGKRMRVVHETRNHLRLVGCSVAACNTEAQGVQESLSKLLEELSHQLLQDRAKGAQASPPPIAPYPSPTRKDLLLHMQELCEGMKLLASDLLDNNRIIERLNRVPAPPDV
In short: (§1)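 His-tagged Sf9-expressed kinases at 0.1 or 0.02 μg/ml (TBK1) and 0.1 or 0.015 μg/ml (IKKε) for normal and sensitized formats, with myelin basic protein or casein substrate. ATP was at 2×Km (60 μM TBK1, 32 μM IKKε) plus 0.3 μCi [γ33]ATP. Reactions ran 30-45 min, were captured on P-81 filters, and counts were normalized to DMSO.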

TBK1 = target: T2, TBK1 (Homo sapiens, UniProt Q9UHD2); test: In-vitro TBK1 kinase assay ([γ33]ATP filter-plate); format: biochemical
T2 construct: His-tag; made in house; host or cells: Sf9 insect cells
T2 sequence (Q9UHD2 1-729): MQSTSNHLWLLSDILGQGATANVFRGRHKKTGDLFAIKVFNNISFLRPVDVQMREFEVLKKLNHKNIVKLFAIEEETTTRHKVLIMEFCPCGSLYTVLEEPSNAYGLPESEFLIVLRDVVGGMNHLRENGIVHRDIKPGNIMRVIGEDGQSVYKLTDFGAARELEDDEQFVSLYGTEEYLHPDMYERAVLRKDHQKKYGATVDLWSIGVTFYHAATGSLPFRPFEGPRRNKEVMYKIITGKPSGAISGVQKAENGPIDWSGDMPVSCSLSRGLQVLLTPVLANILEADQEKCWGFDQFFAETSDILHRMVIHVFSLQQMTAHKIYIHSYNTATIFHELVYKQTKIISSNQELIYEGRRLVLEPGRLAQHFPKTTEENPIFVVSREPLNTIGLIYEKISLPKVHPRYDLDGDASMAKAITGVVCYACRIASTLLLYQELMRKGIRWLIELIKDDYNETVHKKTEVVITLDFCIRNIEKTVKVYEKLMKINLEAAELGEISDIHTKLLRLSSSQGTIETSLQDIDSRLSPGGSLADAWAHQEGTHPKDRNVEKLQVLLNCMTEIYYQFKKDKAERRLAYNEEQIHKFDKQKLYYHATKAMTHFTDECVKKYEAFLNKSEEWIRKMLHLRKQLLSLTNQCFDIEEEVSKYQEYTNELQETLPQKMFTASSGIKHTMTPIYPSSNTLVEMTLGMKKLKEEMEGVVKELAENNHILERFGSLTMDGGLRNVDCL
In short: as §1

[1] = tested on: IKKε-mediated phosphorylation of IRF3; test: In-situ phosphorylation of IRF3 (pIRF3 Ser396 ELISA) in HEK293T cells cotransfected with IRF3 and IKKε; format: cell-based; conditions: Homo sapiens, HEK-293T
In short: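 For the IRF3 ELISA, HEK293T cells cotransfected with IRF3 and IKKε were replated at 20,000/well and treated 20 h. Phospho-Ser396 IRF3 was measured by ELISA and normalised to DMSO, with viability checked by CellTiter-Glo. For IRF7, cells transfected with IRF7 and TBK1 were treated overnight, and pSer477/Ser479 IRF7 was detected by Western blot.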

[2] = text bins, read-out: IC50 for inhibition of the kinase activity of IKKε
[3] = text bins, read-out: IC50 for inhibition of the kinase activity of TBK1
[4] = HEK293T cells in culture, Table 3, read-out: pIRF3 ELISA IC50
[5] = HEK293T cells, 20 hours, text bins, read-out: IC50 for inhibition of the in-situ IKKε-mediated phosphorylation of IRF3

N#Cc1cc(-c2ccnc(Nc3cccc(CN4CCC(O)C4)c3)n2)ccc1OC1CCOCC1 (stereo not drawn) [compound 561, 5-[2-({3-[(3-Hydroxypyrrolidin-1-yl)methyl]phenyl}amino)pyrimidin-4-yl]-2-(tetrahydro-2H-pyran-4-yloxy)benzonitrile]
IC50 (IKKε; Table 3, read-out: IKKε IC50): 0.4 nM
IC50 (IKKε; [2]): < 5 nM
IC50 (TBK1; Table 3, read-out: TBK1 IC50): 0.7 nM
IC50 (TBK1; [3]): < 10 nM
IC50 [1, 4]: 56 nM
IC50 [1, 5]: < 100 nM

COc1cc(Nc2nccc(-c3ccc(OC4CCOCC4)c(C#N)c3)n2)ccc1OCCN [Example 30, 5-(2-{[4-(2-aminoethoxy)-3-methoxyphenyl]amino}pyrimidin-4-yl)-2-(tetrahydro-2H-pyran-4-yloxy)benzonitrile]
IC50 (IKKε; [2]): < 5 nM
IC50 (TBK1; [3]): < 10 nM
IC50 [1, 5]: 250 to 500 nM

CN1CCN(CCNc2cccc(Nc3nccc(-c4ccc(OC5CCOCC5)c(C#N)c4)n3)c2)CC1 [compound 616, 5-{2-[(3-{[2-(4-Methylpiperazin-1-yl)ethyl]amino}phenyl)amino]pyrimidin-4-yl}-2-(tetrahydro-2H-pyran-4-yloxy)benzonitrile]
IC50 (IKKε; Table 3, read-out: IKKε IC50): 1.1 nM
IC50 (IKKε; [2]): < 5 nM
IC50 (TBK1; Table 3, read-out: TBK1 IC50): 1.6 nM
IC50 (TBK1; [3]): < 10 nM
IC50 [1, 4]: 98.5 nM
IC50 [1, 5]: < 100 nM

COc1cc(Nc2nccc(-c3ccc(NC(=O)C4CC4)c(C#N)c3)n2)ccc1C(=O)N1CC(OC)C1 [compound 603, N-{2-Cyano-4-[2-({3-methoxy-4-[(3-methoxyazetidin-1-yl)carbonyl]phenyl}amino)pyrimidin-4-yl]phenyl} cyclopropane-carboxamide]
IC50 (IKKε; [2]): < 5 nM
IC50 (TBK1; [3]): < 10 nM
IC50 [1, 5]: 100 to 250 nM

COc1cc(Nc2nccc(-c3ccc(OC4CCOCC4)c(C#N)c3)n2)ccc1C(=O)N1CCC(N2CCCC2)C1 (stereo not drawn) [compound 502, 5-(2-{[4-(1,3′-bipyrrolidin-1′-ylcarbonyl)-3-methoxyphenyl]amino}pyrimidin-4-yl)-2-(tetrahydro-2H-pyran-4-yloxy)benzonitrile]
IC50 (IKKε; [2]): < 5 nM
IC50 (TBK1; [3]): < 10 nM
IC50 [1, 5]: < 100 nM

N#Cc1cc(-c2ccnc(Nc3ccc(F)c(OCCN4CCNCC4)c3)n2)ccc1OC1CCOCC1 [compound 626, 5-[2-({4-Fluoro-3-[2-(piperazin-1-yl)ethoxy]phenyl}amino)pyrimidin-4-yl]-2-(tetrahydro-2H-pyran-4-yloxy)benzonitrile]
IC50 (IKKε; [2]): < 5 nM
IC50 (TBK1; [3]): < 10 nM
IC50 [1, 5]: < 100 nM

COc1cc(Nc2nccc(-c3ccc(OC4CCOCC4)c(C#N)c3)n2)ccc1C(=O)NCCN(C)C [Example 2, 4-({4-[3-cyano-4-(tetrahydero-2H-pyran-4-yloxy)phenyl]pyrimidin-2-yl}amino)-N-[2-(dimethylamino)ethyl]-2-methoxybenzamide]
IC50 (IKKε; Table 3, read-out: IKKε IC50): 1.1 nM
IC50 (IKKε; [2]): < 5 nM
IC50 (TBK1; Table 3, read-out: TBK1 IC50): 0.4 nM
IC50 (TBK1; [3]): < 10 nM
IC50 [1, 4]: 71.9 nM
IC50 [1, 5]: < 100 nM

N#Cc1cc(-c2ccnc(Nc3ccc(N4CCOCC4)cc3)n2)ccc1OCC1CC1 [compound 438, 2-(cyclopropylmethoxy)-5-(2-{[4-(morpholin-4-yl)phenyl]amino}pyrimidin-4-yl)benzonitrile]
IC50 (IKKε; [2]): < 5 nM
IC50 (TBK1; [3]): < 10 nM
IC50 [1, 5]: < 100 nM

COc1cc(Nc2nccc(-c3ccc(OC4CCOCC4)c(C#N)c3)n2)ccc1C(=O)N1CCC1 [compound 567, 5-(2-{[4-(Azetidin-1-ylcarbonyl)-3-methoxyphenyl]amino}pyrimidin-4-yl)-2-(tetrahydro-2H-pyran-4-yloxy)benzonitrile]
IC50 (IKKε; [2]): < 5 nM
IC50 (TBK1; [3]): < 10 nM
IC50 [1, 5]: < 100 nM
